The values below are quoted from earlier work in PubChem BioAssay AID1259409 (Chemical Carcinogenesis Research Information System (CCRIS), 2018).

The structures appear in SMILES notation.

The series has as its system rodent chemically induced tumor inhibition, incidence and multiplicity. In words: CCRIS tumor inhibitor studies.

Take `O=C1C=C(/C=C/c2ccccc2)C(O)O1` (configuration not stated): the “tumour outcome (control, treated, inhibition, significance)” value by setting is: (Carcinogen: AZOXYMETHANE, 25843-45-2, Dose [Inhibitor]: 0, 0.02% IN DIET FOR FIRST 3 WK OF STUDY (STUDY DURATION: 1 YR), Route [Inhibitor]: ORAL, Species: RAT, Strain/Sex: F344/MALE, Target Tissue: Type of Lesion: INTESTINE: ADENOMA OR ADENOCARCINOMA, Dose [Carcinogen]: 15 MG/KG BW ONCE IN WK 1 AND ONCE IN WK 3 OF STUDY, Promoter: NONE USED) 20/27 (74%), 7/18 (39%), 47%, p<0.02; (Carcinogen: AZOXYMETHANE, 25843-45-2, Dose [Inhibitor]: 0, 100 PPM IN DIET FOR DURATION OF STUDY BEGINNING 1 WK POST CARCINOGEN TREATMENT (STUDY DURATION: 32 WK), Route [Inhibitor]: ORAL, Species: RAT, Strain/Sex: F344/MALE, Target Tissue: Type of Lesion: LARGE INTESTINE: ADENOCARCINOMA, Dose [Carcinogen]: 15 MG/KG BW 1/WK FOR 3 WK, Promoter: NONE USED) 10/30 (33%), 5/28 (18%), 45%, not significant; (Carcinogen: AZOXYMETHANE, 25843-45-2, Dose [Inhibitor]: 0, 100 PPM IN DIET FOR DURATION OF STUDY BEGINNING 1 WK POST CARCINOGEN TREATMENT (STUDY DURATION: 32 WK), Route [Inhibitor]: ORAL, Species: RAT, Strain/Sex: F344/MALE, Target Tissue: Type of Lesion: LARGE INTESTINE: ADENOMA, Dose [Carcinogen]: 15 MG/KG BW 1/WK FOR 3 WK, Promoter: NONE USED) 1/30 (3%), 2/28 (7%), -133%, not significant; (Carcinogen: AZOXYMETHANE, 25843-45-2, Dose [Inhibitor]: 0, 100 PPM IN DIET FOR DURATION OF STUDY BEGINNING 1 WK POST CARCINOGEN TREATMENT (STUDY DURATION: 32 WK), Route [Inhibitor]: ORAL, Species: RAT, Strain/Sex: F344/MALE, Target Tissue: Type of Lesion: SMALL INTESTINE: ADENOCARCINOMA, Dose [Carcinogen]: 15 MG/KG BW 1/WK FOR 3 WK, Promoter: NONE USED) 12/30 (40%), 7/28 (25%), 38%, not significant; (Carcinogen: AZOXYMETHANE, 25843-45-2, Dose [Inhibitor]: 0, 100 PPM IN DIET FOR DURATION OF STUDY BEGINNING 1 WK POST CARCINOGEN TREATMENT (STUDY DURATION: 32 WK), Route [Inhibitor]: ORAL, Species: RAT, Strain/Sex: F344/MALE, Target Tissue: Type of Lesion: SMALL INTESTINE: ADENOMA, Dose [Carcinogen]: 15 MG/KG BW 1/WK FOR 3 WK, Promoter: NONE USED) 1/30 (3%), 1/28 (4%), -33%, not significant; (Carcinogen: AZOXYMETHANE, 25843-45-2, Dose [Inhibitor]: 0, 200 PPM IN DIET FOR DURATION OF STUDY BEGINNING 1 WK POST CARCINOGEN TREATMENT (STUDY DURATION: 32 WK), Route [Inhibitor]: ORAL, Species: RAT, Strain/Sex: F344/MALE, Target Tissue: Type of Lesion: LARGE INTESTINE: ADENOCARCINOMA, Dose [Carcinogen]: 15 MG/KG BW 1/WK FOR 3 WK, Promoter: NONE USED) 10/30 (33%), 3/28 (11%), 67%, p<0.05. Besides, the “tumour outcome (control, treated, inhibition, significance)” value reads like this: (Carcinogen: AZOXYMETHANE, 25843-45-2, Dose [Inhibitor]: 0, 200 PPM IN DIET FOR DURATION OF STUDY BEGINNING 1 WK POST CARCINOGEN TREATMENT (STUDY DURATION: 32 WK), Route [Inhibitor]: ORAL, Species: RAT, Strain/Sex: F344/MALE, Target Tissue: Type of Lesion: LARGE INTESTINE: ADENOMA, Dose [Carcinogen]: 15 MG/KG BW 1/WK FOR 3 WK, Promoter: NONE USED) 1/30 (3%), 2/28 (7%), -133%, not significant; (Carcinogen: AZOXYMETHANE, 25843-45-2, Dose [Inhibitor]: 0, 200 PPM IN DIET FOR DURATION OF STUDY BEGINNING 1 WK POST CARCINOGEN TREATMENT (STUDY DURATION: 32 WK), Route [Inhibitor]: ORAL, Species: RAT, Strain/Sex: F344/MALE, Target Tissue: Type of Lesion: SMALL INTESTINE: ADENOCARCINOMA, Dose [Carcinogen]: 15 MG/KG BW 1/WK FOR 3 WK, Promoter: NONE USED) 12/30 (40%), 2/28 (7%), 83%, p<0.005; (Carcinogen: AZOXYMETHANE, 25843-45-2, Dose [Inhibitor]: 0, 200 PPM IN DIET FOR DURATION OF STUDY BEGINNING 1 WK POST CARCINOGEN TREATMENT (STUDY DURATION: 32 WK), Route [Inhibitor]: ORAL, Species: RAT, Strain/Sex: F344/MALE, Target Tissue: Type of Lesion: SMALL INTESTINE: ADENOMA, Dose [Carcinogen]: 15 MG/KG BW 1/WK FOR 3 WK, Promoter: NONE USED) 1/30 (3%), 0/28 (0%), 100%, not significant.
As for `Cc1ncc(C[n+]2csc(CCO)c2C)c(N)n1`, the “tumour outcome (control, treated, inhibition, significance)” value (Carcinogen: 7,12-DIMETHYLBENZ[A]ANTHRACENE, 57-97-6, Dose [Inhibitor]: 0.2% IN DRINKING WATER DAILY STARTING 4 WK BEFORE CARCINOGEN TREATMENT AND CONTINUING FOR DURATION OF STUDY (STUDY DURAT, Route [Inhibitor]: ORAL, Species: MOUSE, Strain/Sex: 101/MALE, FEMALE, Target Tissue: Type of Lesion: SKIN: PAPILLOMA, Dose [Carcinogen]: 225 UG IN 0.15 ML ACETONE ONCE, Promoter: CROTON OIL, 8001-28-3) was 17/19 (89%), 18/20 (90%), -1%, not calculated; the “tumour outcome (control, treated, inhibition, significance)” value (Carcinogen: BENZO[A]PYRENE, 50-32-8, Dose [Inhibitor]: 2.5 MG 2/WK FOR 20 WK STARTING 4 WK BEFORE START OF CARCINOGEN TREATMENT PLUS 0.2% IN DRINKING WATER (STUDY DURATION: 22, Route [Inhibitor]: SUBCUTANEOUS, ORAL, Species: MOUSE, Strain/Sex: 101/MALE, FEMALE, Target Tissue: Type of Lesion: SKIN: PAPILLOMA, Dose [Carcinogen]: 0.2 ML OF 0.25% 2/WK FOR 20 WK, Promoter: NONE USED) is recorded as 13/18 (72%), 5/8 (63%), 13%, not calculated; the “tumour outcome (control, treated, inhibition, significance)” value (Carcinogen: BENZO[A]PYRENE, 50-32-8, Dose [Inhibitor]: 2.5 MG 2/WK FOR 20 WK STARTING 4 WK BEFORE START OF CARCINOGEN TREATMENT PLUS 0.2% IN DRINKING WATER (STUDY DURATION: 37, Route [Inhibitor]: SUBCUTANEOUS, ORAL, Species: MOUSE, Strain/Sex: 101/MALE, FEMALE, Target Tissue: Type of Lesion: SKIN: MALIGNANT TUMOR, Dose [Carcinogen]: 0.2 ML OF 0.25% 2/WK FOR 20 WK, Promoter: NONE USED) is recorded as 12/18 (67%), 5/8 (63%), 6%, not calculated; the “tumour outcome (control, treated, inhibition, significance)” value (Carcinogen: ETHYLNITROSOUREA, 759-73-9, Dose [Inhibitor]: 0, 500 MG/KG MIXED WITH STARCH 1:20 (WEIGHT: WEIGHT) IN DIET 5 D/WK FOR 10 MO (STUDY DURATION: 10 MO), Route [Inhibitor]: ORAL, Species: RAT, Strain/Sex: ALBINO/MALE,FEMALE, Target Tissue: Type of Lesion: BRAIN: GLIOMA OR ASTROCYTOMA, Dose [Carcinogen]: 75 MG/KG IN SALINE BY INTRAVENOUS INJECTION ONCE 21 D AFTER CONCEPTION) was 21/40 (52%), 14/20 (70%), -35%, not calculated; the “tumour outcome (control, treated, inhibition, significance)” value (Carcinogen: ETHYLNITROSOUREA, 759-73-9, Dose [Inhibitor]: 0, 500 MG/KG MIXED WITH STARCH 1:20 (WEIGHT: WEIGHT) IN DIET 5 D/WK FOR 10 MO (STUDY DURATION: 10 MO), Route [Inhibitor]: ORAL, Species: RAT, Strain/Sex: ALBINO/MALE,FEMALE, Target Tissue: Type of Lesion: KIDNEY: MESENCHYMAL TUMOR OR ADENOCARCINOMA, Dose [Carcinogen]: 75 MG/KG IN SALINE BY INTRAVENOUS INJECTION ONCE 21 D AFTER CONCEPTION) is 11/40 (28%), 10/20 (50%), -79%, not calculated; the “tumour outcome (control, treated, inhibition, significance)” value (Carcinogen: ETHYLNITROSOUREA, 759-73-9, Dose [Inhibitor]: 0, 500 MG/KG MIXED WITH STARCH 1:20 (WEIGHT: WEIGHT) IN DIET 5 D/WK FOR 10 MO (STUDY DURATION: 10 MO), Route [Inhibitor]: ORAL, Species: RAT, Strain/Sex: ALBINO/MALE,FEMALE, Target Tissue: Type of Lesion: NERVOUS SYSTEM: SCHWANNOMA, Dose [Carcinogen]: 75 MG/KG IN SALINE BY INTRAVENOUS INJECTION ONCE 21 D AFTER CONCEPTION) is given as 19/40 (48%), 5/20 (25%), 48%, not calculated. For the same compound, the “tumour outcome (control, treated, inhibition, significance)” value (Carcinogen: ETHYLNITROSOUREA, 759-73-9, Dose [Inhibitor]: 0, 500 MG/KG MIXED WITH STARCH 1:20 (WEIGHT: WEIGHT) IN DIET 5 D/WK FOR 10 MO (STUDY DURATION: 10 MO), Route [Inhibitor]: ORAL, Species: RAT, Strain/Sex: ALBINO/MALE,FEMALE, Target Tissue: Type of Lesion: SPINAL CORD: TUMOR, Dose [Carcinogen]: 75 MG/KG IN SALINE BY INTRAVENOUS INJECTION ONCE 21 D AFTER CONCEPTION) was 17/40 (42%), 4/20 (20%), 52%, not calculated.
For `CC(C)(C)c1cc(CO)cc(C(C)(C)C)c1O`, the “tumour outcome (control, treated, inhibition, significance)” value (Carcinogen: 7,12-DIMETHYLBENZ[A]ANTHRACENE, 57-97-6, Dose [Inhibitor]: 0, 200 MG/KG BW/D FOR 3 WK BEGINNING 2 WK PRIOR TO CARCINOGEN DOSE (STUDY DURATION: 24 WK), Route [Inhibitor]: INTRAPERITONEAL, Species: RAT, Strain/Sex: SPRAGUE-DAWLEY/FEMALE, Target Tissue: Type of Lesion: MAMMARY GLAND: TUMOR, Dose [Carcinogen]: 33.3 MG/KG BW IN 0.25 ML CORN OIL ONCE AT 50 D OF AGE, Promoter: NONE USED) was 91%, 81%, 11%, not significant.
